System: subjects with NAFLD and increased liver stiffness
Test: Clinical Trial B: liver steatosis by MRI-PDFF
Type: in vivo, human
Conditions: 0.4 mg OD s.c.
Procedure: A randomised, double-blind, placebo-controlled, parallel group, multi-centre phase 1 trial was carried out to investigate the effect of 0.4 mg semaglutide once-daily (OD) in 67 subjects with NAFLD and increased liver stiffness. Subjects received once daily either (i) semaglutide of 0.05 mg for 4 weeks, 0.1 mg for 4 weeks, 0.2 mg for 4 weeks, 0.3 mg for 4 weeks, and then 0.4 mg for the remaining trial period, or (ii) placebo in injection volumes corresponding to (i). Administration was performed via subcutaneous injection using (a) an aqueous solution comprising 1.0 mg/ml semaglutide, 1.42 mg/ml disodium hydrogen phosphate dihydrate, 14.0 mg/ml propylene glycol, 5.50 mg/ml phenol at pH 7.4, or (b) a placebo solution comprising the same ingredients as (a) except no semaglutide. Inclusion criteria for subjects in the trial comprised (i) liver steatosis of at least 10% measured by magnetic resonance imaging proton density fat fraction (MRI-PDFF) at screening, (ii) liver stiffness between 2.50 and 4.63 kPa (both inclusive) measured by magnetic resonance elastography at screening, (iii) BMI between 25.0 and 40.0 kg/m^2 (both inclusive) at screening, (iv) liver stiffness >6.50 kPa measured via Fibroscan® (manufactured by Echosens, Paris, France) at screening, and (v) for subjects with type 2 diabetes mellitus only, diagnosis of type 2 diabetes mellitus was at least 180 days prior to screening and with HbA1c of no more than 9.5% at screening. Screening was carried out prior to baseline in order to make assessments used to determine subject eligibility. Exclusion criteria for subjects in the trial comprised (i) documented causes of chronic liver disease other than NAFLD including NASH and (ii) no substantial alcohol consumption, defined in the trial as no more than 20 g ethanol per day for women or no more than 30 g ethanol per day for men. Baseline characteristics for all randomised subjects in the trial were shown in Table B. MRI-PDFF is a determination of the percentage of fat in the entire liver and the method is described in e.g. Caussy et al. Hepatology. 2018 August; 68(2):763-772.

N-epsilon26-[2-(2-{2-[2-(2-{2-[(S)-4-Carboxy-4-(17-carboxyheptadecanoyl-amino)butyrylamino]ethoxy}ethoxy)acetylamino]ethoxy}ethoxy)acetyl] [Aib8, Arg34]GLP-1-(7-37) [Semaglutide]
Reduction of liver steatosis compared to placebo (24 weeks of trial): 30% | Subjects with at least 30% reduction in liver steatosis (24 weeks of trial): about 65% | Reduction of liver steatosis compared to placebo (48 and 72 weeks of trial): about 50% | Subjects with at least 30% reduction in liver steatosis (48 and 72 weeks of trial): 74-77% | Change in liver steatosis by MRI-PDFF compared to baseline, Estimated mean ratio to baseline (trial week 24): 0.64 | Proportion of subjects with 30% or greater reduction in liver steatosis by MRI-PDFF compared to baseline (trial week 24): 64.7 (p = 0.0006) % | Change in liver steatosis by MRI-PDFF compared to baseline, Estimated mean ratio to baseline (trial week 48): 0.42 | Proportion of subjects with 30% or greater reduction in liver steatosis by MRI-PDFF compared to baseline (trial week 48): 76.5 (p = 0.0001) % | Change in liver steatosis by MRI-PDFF compared to baseline, Estimated mean ratio to baseline (trial week 72): 0.42 | Proportion of subjects with 30% or greater reduction in liver steatosis by MRI-PDFF compared to baseline (trial week 72): 73.5 (p = 0.0006) %
